# Target: T1, F508del (Homo sapiens, UniProt P13569, DEL508-508)
# T1 construct: expressed in transfected cells
# Assay: Protocol 1: membrane potential optical assay (FLIPR III, voltage sensing dye), identification of potentiator compounds
# Format: cell-based
# Conditions: Table 3, compounds of Table 1
# Procedure, shortened: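 Gating potentiation is read as a membrane-potential fluorescence change (FLIPR III, voltage-sensing dye) after one forskolin addition under a Cl− gradient, with gluconate replacing chloride, pH 7.4. Cells are F508del-expressing NIH3T3 mouse fibroblasts held 24 h at 27 °C and exposed to compound before dye loading.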
# T1 sequence (P13569 with tags, fused parts or gaps DEL508-508): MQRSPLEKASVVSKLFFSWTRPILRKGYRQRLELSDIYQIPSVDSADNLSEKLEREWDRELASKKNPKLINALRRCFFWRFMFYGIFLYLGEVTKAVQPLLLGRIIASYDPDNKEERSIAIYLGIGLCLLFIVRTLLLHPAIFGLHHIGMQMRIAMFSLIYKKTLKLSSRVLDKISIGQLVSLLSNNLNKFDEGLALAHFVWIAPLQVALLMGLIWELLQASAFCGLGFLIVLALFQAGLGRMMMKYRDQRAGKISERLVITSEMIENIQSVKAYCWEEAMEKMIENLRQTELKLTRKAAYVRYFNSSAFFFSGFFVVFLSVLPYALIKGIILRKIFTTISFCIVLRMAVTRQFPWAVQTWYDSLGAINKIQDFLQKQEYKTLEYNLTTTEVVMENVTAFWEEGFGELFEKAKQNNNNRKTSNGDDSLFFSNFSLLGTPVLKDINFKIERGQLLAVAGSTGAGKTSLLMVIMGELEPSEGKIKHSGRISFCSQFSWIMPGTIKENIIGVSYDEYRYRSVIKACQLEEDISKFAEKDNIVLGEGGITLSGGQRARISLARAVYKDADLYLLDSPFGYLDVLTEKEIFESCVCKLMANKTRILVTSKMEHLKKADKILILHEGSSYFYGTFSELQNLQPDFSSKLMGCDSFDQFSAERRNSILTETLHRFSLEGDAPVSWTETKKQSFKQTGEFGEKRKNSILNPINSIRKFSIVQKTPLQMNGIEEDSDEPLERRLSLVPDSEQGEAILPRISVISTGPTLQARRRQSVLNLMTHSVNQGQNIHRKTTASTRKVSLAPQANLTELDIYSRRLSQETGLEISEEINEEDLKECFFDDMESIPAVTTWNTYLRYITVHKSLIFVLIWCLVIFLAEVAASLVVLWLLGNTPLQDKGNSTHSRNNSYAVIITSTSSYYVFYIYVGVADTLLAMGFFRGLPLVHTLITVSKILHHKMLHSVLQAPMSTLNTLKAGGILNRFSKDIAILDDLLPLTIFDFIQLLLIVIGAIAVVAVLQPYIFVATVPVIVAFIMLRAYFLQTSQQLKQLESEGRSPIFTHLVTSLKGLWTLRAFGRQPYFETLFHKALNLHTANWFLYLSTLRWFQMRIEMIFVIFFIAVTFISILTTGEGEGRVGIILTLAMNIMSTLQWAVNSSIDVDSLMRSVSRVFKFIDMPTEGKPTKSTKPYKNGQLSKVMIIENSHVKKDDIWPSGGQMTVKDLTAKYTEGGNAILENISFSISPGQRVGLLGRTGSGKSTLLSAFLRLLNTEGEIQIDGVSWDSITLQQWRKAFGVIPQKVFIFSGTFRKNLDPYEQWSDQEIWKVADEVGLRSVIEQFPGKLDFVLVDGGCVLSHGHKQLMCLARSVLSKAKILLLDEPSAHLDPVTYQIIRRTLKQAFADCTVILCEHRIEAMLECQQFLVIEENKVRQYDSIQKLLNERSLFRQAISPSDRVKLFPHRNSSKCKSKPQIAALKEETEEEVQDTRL
row,SMILES,EC30
1,"CC(C)Oc1ccn(-c2ccc(C(=O)NS(=O)(=O)c3cccnc3N)c(N3C[C@@H](C)CC3(C)C)n2)n1 [Compound 1844, N-[(2-amino-3-pyridyl)sulfonyl]-6-(3-isopropoxypyrazol-1-yl)-2-[(4S)-2,2,4-trimethylpyrrolidin-1-yl]pyridine-3-carboxamide]",+++ (“+++” means <3 uM)
2,"CCN(CC)c1cccc(-c2ccc(C(=O)NS(=O)(=O)c3cccnc3N)c(N3C[C@@H](C)CC3(C)C)n2)n1 [Compound 1845, N-[(2-amino-3-pyridyl)sulfonyl]-6-[6-(diethylamino)-2-pyridyl]-2-[(4S)-2,2,4-trimethylpyrrolidin-1-yl]pyridine-3-carboxamide]",+++ (“+++” means <3 uM)
3,C[C@@H]1CN(c2nc(C(C)(C)C)c(C(O)C(O)C3CCCCC3)cc2C(=O)NS(=O)(=O)c2cccc(N)n2)C(C)(C)C1 (some centres unmarked) [Compound 1846],+++ (“+++” means <3 uM)
4,"CCOc1cccc(-c2ccc(C(=O)NS(=O)(=O)c3cccnc3N)c(N3C[C@@H](C)CC3(C)C)n2)c1F [Compound 1847, N-[(2-amino-3-pyridyl)sulfonyl]-6-(3-ethoxy-2-fluoro-phenyl)-2-[(4S)-2,2,4-trimethylpyrrolidin-1-yl]pyridine-3-carboxamide]",+++ (“+++” means <3 uM)
5,"CCOc1ccccc1-c1ccc(C(=O)NS(=O)(=O)c2ccc[nH]c2=O)c(N2C[C@@H](C)CC2(C)C)n1 [Compound 1848, 6-(2-ethoxyphenyl)-N-[(2-oxo-1H-pyridin-3-yl)sulfonyl]-2-[(4S)-2,2,4-trimethylpyrrolidin-1-yl]pyridine-3-carboxamide]",+++ (“+++” means <3 uM)
6,"CC1CN(c2ncc(-c3cccc(C#N)c3)cc2C(=O)NS(=O)(=O)c2cccc(N)n2)C(C)(C)C1 (centres unmarked) [Compound 1849, N-[(6-amino-2-pyridyl)sulfonyl]-5-(3-cyanophenyl)-2-(2,2,4-trimethylpyrrolidin-1-yl)pyridine-3-carboxamide]",++ (“++” means between 3 uM and 10 uM)
7,"C[C@@H]1CN(c2nc(C3CCOCC3)ccc2C(=O)NS(=O)(=O)c2cccnc2N)C(C)(C)C1 [Compound 1850, N-[(2-amino-3-pyridyl)sulfonyl]-6-tetrahydropyran-4-yl-2-[(4S)-2,2,4-trimethylpyrrolidin-1-yl]pyridine-3-carboxamide]",+++ (“+++” means <3 uM)
8,"COc1ccc(-c2ccc(C(=O)NS(=O)(=O)c3cccnc3N)c(N3C[C@@H](C)CC3(C)C)n2)cc1F [Compound 1851, N-[(2-amino-3-pyridyl)sulfonyl]-6-(3-fluoro-4-methoxy-phenyl)-2-[(4S)-2,2,4-trimethylpyrrolidin-1-yl]pyridine-3-carboxamide]",+++ (“+++” means <3 uM)
9,"CC(C)(C)c1ccc(C(=O)NS(=O)(=O)c2cccc(N)n2)c(N2CCC(Cc3ccccc3)C2(C)C)n1 (centres unmarked) [Compound 1852, N-[(6-amino-2-pyridyl)sulfonyl]-2-(3-benzyl-2,2-dimethyl-pyrrolidin-1-yl)-6-tert-butyl-pyridine-3-carboxamide]",+++ (“+++” means <3 uM)
10,"COc1ccc(-c2ccc(C(=O)NS(=O)(=O)c3ccc[nH]c3=O)c(N3C[C@@H](C)CC3(C)C)n2)c(OC)n1 [Compound 1853, 6-(2,6-dimethoxy-3-pyridyl)-N-[(2-oxo-1H-pyridin-3-yl)sulfonyl]-2-[(4S)-2,2,4-trimethylpyrrolidin-1-yl]pyridine-3-carboxamide]",++ (“++” means between 3 uM and 10 uM)
11,"C[C@@H]1CN(c2nc(-c3ccc(F)c(F)c3)ccc2C(=O)NS(=O)(=O)c2cccnc2N)C(C)(C)C1 [Compound 1854, N-[(2-amino-3-pyridyl)sulfonyl]-6-(3,4-difluorophenyl)-2-[(4S)-2,2,4-trimethylpyrrolidin-1-yl]pyridine-3-carboxamide]",+++ (“+++” means <3 uM)
12,"CCOc1nn(-c2ccc(C(=O)NS(=O)(=O)c3ccc[nH]c3=O)c(N3C[C@@H](C)CC3(C)C)n2)cc1C [Compound 1856, 6-(3-ethoxy-4-methyl-pyrazol-1-yl)-N-[(2-oxo-1H-pyridin-3-yl)sulfonyl]-2-[(4S)-2,2,4-trimethylpyrrolidin-1-yl]pyridine-3-carboxamide]",+++ (“+++” means <3 uM)
13,"C[C@@H]1CN(c2nc(-c3cccc4ccccc34)ccc2C(=O)NS(=O)(=O)c2cccnc2N)C(C)(C)C1 [Compound 1857, N-[(2-amino-3-pyridyl)sulfonyl]-6-(1-naphthyl)-2-[(4S)-2,2,4-trimethylpyrrolidin-1-yl]pyridine-3-carboxamide]",+++ (“+++” means <3 uM)
14,"COc1ccc(-c2ccc(C(=O)NS(=O)(=O)c3ccc[nH]c3=O)c(N3C[C@@H](C)CC3(C)C)n2)c(F)c1 [Compound 1858, 6-(2-fluoro-4-methoxy-phenyl)-N-[(2-oxo-1H-pyridin-3-yl)sulfonyl]-2-[(4S)-2,2,4-trimethylpyrrolidin-1-yl]pyridine-3-carboxamide]",++ (“++” means between 3 uM and 10 uM)
15,"COc1ncccc1S(=O)(=O)NC(=O)c1cc2ccc(C)cc2nc1N1C[C@@H](C)CC1(C)C [Compound 1859, N-[(2-methoxy-3-pyridyl)sulfonyl]-7-methyl-2-[(4S)-2,2,4-trimethylpyrrolidin-1-yl]quinoline-3-carboxamide]",+++ (“+++” means <3 uM)
16,"CCOc1ccc(-c2ccc(C(=O)NS(=O)(=O)c3cccnc3N)c(N3C[C@@H](C)CC3(C)C)n2)cc1C [Compound 1860, N-[(2-amino-3-pyridyl)sulfonyl]-6-(4-ethoxy-3-methyl-phenyl)-2-[(4S)-2,2,4-trimethylpyrrolidin-1-yl]pyridine-3-carboxamide]",+++ (“+++” means <3 uM)
17,"COc1cccc(-c2cnc(N3CC(C)CC3(C)C)c(C(=O)NS(=O)(=O)c3cccc(N)n3)c2)n1 (centres unmarked) [Compound 1861, N-[(6-amino-2-pyridyl)sulfonyl]-5-(6-methoxy-2-pyridyl)-2-(2,2,4-trimethylpyrrolidin-1-yl)pyridine-3-carboxamide]",+++ (“+++” means <3 uM)
18,"CCc1ccnc(Nc2cccc(S(=O)(=O)NC(=O)c3cccnc3N3CC(C)CC3(C)C)n2)c1 (centres unmarked) [Compound 1862, N—[[6-[(4-ethyl-2-pyridyl)amino]-2-pyridyl]sulfonyl]-2-(2,2,4-trimethylpyrrolidin-1-yl)pyridine-3-carboxamide]",+++ (“+++” means <3 uM)
19,"CC1CN(c2ncccc2C(=O)NS(=O)(=O)c2cccc(NCc3nccs3)n2)C(C)(C)C1 (centres unmarked) [Compound 1865, N—[[6-(thiazol-2-ylmethylamino)-2-pyridyl]sulfonyl]-2-(2,2,4-trimethylpyrrolidin-1-yl)pyridine-3-carboxamide]",++ (“++” means between 3 uM and 10 uM)

# The remaining lines, values ahead:
row,EC30,SMILES
1,+++ (“+++” means <3 uM),"COc1ccc(-c2ccc(C(=O)NS(=O)(=O)c3cccnc3N)c(N3C[C@@H](C)CC3(C)C)n2)c(C)n1 [Compound 1866, N-[(2-amino-3-pyridyl)sulfonyl]-6-(6-methoxy-2-methyl-3-pyridyl)-2-[(4S)-2,2,4-trimethylpyrrolidin-1-yl]pyridine-3-carboxamide]"
2,+++ (“+++” means <3 uM),"CCOc1cc(F)ccc1-c1ccc(C(=O)NS(=O)(=O)c2ccc[nH]c2=O)c(N2C[C@@H](C)CC2(C)C)n1 [Compound 1867, 6-(2-ethoxy-4-fluoro-phenyl)-N-[(2-oxo-1H-pyridin-3-yl)sulfonyl]-2-[(4S)-2,2,4-trimethylpyrrolidin-1-yl]pyridine-3-carboxamide]"
3,+++ (“+++” means <3 uM),"C[C@@H]1CN(c2nc(C3CCCCO3)ccc2C(=O)NS(=O)(=O)c2ccccc2)C(C)(C)C1 (stereo partly drawn) [Compound 1868, N-(benzenesulfonyl)-6-tetrahydropyran-2-yl-2-[(4S)-2,2,4-trimethylpyrrolidin-1-yl]pyridine-3-carboxamide]"
4,+++ (“+++” means <3 uM),"COc1cc(F)cc(-c2ccc(C(=O)NS(=O)(=O)c3cccnc3N)c(N3C[C@@H](C)CC3(C)C)n2)c1 [Compound 1869, N-[(2-amino-3-pyridyl)sulfonyl]-6-(3-fluoro-5-methoxy-phenyl)-2-[(4S)-2,2,4-trimethylpyrrolidin-1-yl]pyridine-3-carboxamide]"
5,++ (“++” means between 3 uM and 10 uM),"CCN(CCOC)c1cccc(S(=O)(=O)NC(=O)c2cccnc2N2CC(C)CC2(C)C)n1 (centres unmarked) [Compound 1870, N—[[6-[ethyl(2-methoxyethyl)amino]-2-pyridyl]sulfonyl]-2-(2,2,4-trimethylpyrrolidin-1-yl)pyridine-3-carboxamide]"
6,+++ (“+++” means <3 uM),"Cc1ccc(-c2ccc(C(=O)NS(=O)(=O)c3cccnc3N)c(N3C[C@@H](C)CC3(C)C)n2)c(C)c1 [Compound 1871, N-[(2-amino-3-pyridyl)sulfonyl]-6-(2,4-dimethylphenyl)-2-[(4S)-2,2,4-trimethylpyrrolidin-1-yl]pyridine-3-carboxamide]"
7,+++ (“+++” means <3 uM),"CC1CN(c2ncccc2C(=O)NS(=O)(=O)c2cccc(Nc3ccccc3Cl)n2)C(C)(C)C1 (centres unmarked) [Compound 1872, N—[[6-(2-chloroanilino)-2-pyridyl]sulfonyl]-2-(2,2,4-trimethylpyrrolidin-1-yl)pyridine-3-carboxamide]"
8,+++ (“+++” means <3 uM),"C[C@@H]1CN(c2nc(-c3cccc(F)c3)ccc2C(=O)NS(=O)(=O)c2cccnc2N)C(C)(C)C1 [Compound 1873, N-[(2-amino-3-pyridyl)sulfonyl]-6-(3-fluorophenyl)-2-[(4S)-2,2,4-trimethylpyrrolidin-1-yl]pyridine-3-carboxamide]"
9,+++ (“+++” means <3 uM),"CC1CN(c2ncccc2C(=O)NS(=O)(=O)c2cccc(OCC3CCC=CO3)n2)C(C)(C)C1 (centres unmarked) [Compound 1874, N—[[6-(3,4-dihydro-2H-pyran-2-ylmethoxy)-2-pyridyl]sulfonyl]-2-(2,2,4-trimethylpyrrolidin-1-yl)pyridine-3-carboxamide]"
10,++ (“++” means between 3 uM and 10 uM),"CC1CN(c2ncccc2C(=O)NS(=O)(=O)c2cccc(Oc3ccc4cccnc4c3)n2)C(C)(C)C1 (centres unmarked) [Compound 1875, N—[[6-(7-quinolyloxy)-2-pyridyl]sulfonyl]-2-(2,2,4-trimethylpyrrolidin-1-yl)pyridine-3-carboxamide]"

# — patent US10758534B2 (Vertex Pharmaceuticals Incorporated, priority 2014, dated 2020)
